# Reference: ChEMBL document CHEMBL1123587, “Nucleosides. 139. Synthesis and anticytomegalovirus and antiherpes simplex virus activity of 5'-modified analogues of 2'-fluoroarabinosylpyrimidine nucleosides” (1987)
# Key:
# Assay type in all cases: functional
# Vero = test: Compound was evaluated for cytotoxicity in rapidly dividing Vero cells; conditions: Chlorocebus sabaeus, read-out: ID50 (the source's name)
# Human alphaherpesvirus 2 [1] = test: Effective concentration required to inhibit replication of strain G of HSV-2 by 50%; conditions: read-out: ED50 (the source's name)
# Human alphaherpesvirus 1 [2] = test: Effective concentration required to inhibit replication of strain F of HSV-1 by 90%
# Human alphaherpesvirus 2 [3] = test: Effective concentration required to inhibit replication of strain G of HSV-2 by 90%
# Human alphaherpesvirus 1 [4] = test: Effective concentration required to inhibit replication of strain F of HSV-1 by 50%; conditions: read-out: ED50 (the source's name)
Structure (SMILES),IC50 (Vero),EC50 (Human alphaherpesvirus 2 [1]),ED90 (Human alphaherpesvirus 1 [2]),ED90 (Human alphaherpesvirus 2 [3]),EC50 (Human alphaherpesvirus 1 [4])
NCC1O[C@@H](n2cc(I)c(=O)[nH]c2=O)[C@H](F)[C@H]1O (stereo not given in full),> 200 µM,> 200 µM,>200 µM,>200 µM,108 µM
CC1O[C@@H](n2cc(I)c(N)nc2=O)[C@H](F)[C@H]1O (stereo not given in full),> 400 µM,> 400 µM,>400 µM,>400 µM,> 400 µM
Nc1nc(=O)n([C@@H]2OC(CS)[C@H](O)[C@H]2F)cc1I (stereo not given in full),337 µM,> 200 µM,444 µM,>200 µM,216 µM
Cc1cn([C@@H]2OC(C)[C@H](O)[C@H]2F)c(=O)[nH]c1=O (stereo not given in full),214 µM,173 µM,298 µM,493 µM,31.1 µM
NCC1O[C@@H](n2cc(I)c(N)nc2=O)[C@H](F)[C@H]1O (stereo not given in full),> 400 µM,> 400 µM,480 µM,>400 µM,202 µM
Cc1cn([C@@H]2OC(CS)[C@H](O)[C@H]2F)c(=O)[nH]c1=O (stereo not given in full),314 µM,> 200 µM,>200 µM,>200 µM,> 200 µM
CC1O[C@@H](n2cc(I)c(=O)[nH]c2=O)[C@H](F)[C@H]1O (stereo not given in full),> 400 µM,135 µM,384 µM,290 µM,220 µM
CC1O[C@@H](n2ccc(=O)[nH]c2=O)[C@H](F)[C@H]1O (stereo not given in full),333 µM,224 µM,538 µM,379 µM,346 µM
Cc1cn([C@@H]2OC(CN)[C@H](O)[C@H]2F)c(=O)[nH]c1=O (stereo not given in full),6.7 µM,5.6 µM,3 µM,14 µM,0.78 µM
CC1O[C@@H](n2ccc(N)nc2=O)[C@H](F)[C@H]1O (stereo not given in full),225 µM,17.1 µM,35.9 µM,45.5 µM,13.3 µM
"Cc1cn([C@@H]2O[C@H](CO)C(O)C2F)c(=O)[nH]c1=O (single isomer, unassigned) [5-METHYL-2'-FLUOROARAURACIL]",2.8 µM,0.023 µM,0.047 µM,0.09 µM,0.018 µM
"Nc1nc(=O)n([C@@H]2O[C@H](CO)C(O)C2F)cc1I (single isomer, unassigned) [FIACITABINE]",21.7 µM,0.03 µM,0.048 µM,0.08 µM,0.023 µM
"O=c1[nH]c(=O)n([C@@H]2O[C@H](CO)C(O)C2F)cc1I (single isomer, unassigned) [FIALURIDINE]",10.3 µM,0.01 µM,0.041 µM,0.045 µM,0.012 µM
